Laboratory results published in ChEMBL document CHEMBL2074529, “Increased sensitivity to gemcitabine of P-glycoprotein and multidrug resistance-associated protein-overexpressing human cancer cell lines” (Br J Cancer, 2003).

Columns and labels:
Type in all cases: functional, cell-based
[1] = target: T1, ATP-dependent translocase ABCB1 (Homo sapiens, UniProt P08183); test: TP_TRANSPORTER: drug resistance in […]-expressing SWI573/SI(I.I) cells
[2] = target: T1, ATP-dependent translocase ABCB1; test: TP_TRANSPORTER: drug resistance in 2780AD cells
[3] = target: T1, ATP-dependent translocase ABCB1; test: TP_TRANSPORTER: drug resistance in 2RI60 cells
[4] = target: T1, ATP-dependent translocase ABCB1; test: TP_TRANSPORTER: drug resistance in MDR1-expressing BROmdr cells

Measured: Activity

T1 sequence (P08183 whole entry): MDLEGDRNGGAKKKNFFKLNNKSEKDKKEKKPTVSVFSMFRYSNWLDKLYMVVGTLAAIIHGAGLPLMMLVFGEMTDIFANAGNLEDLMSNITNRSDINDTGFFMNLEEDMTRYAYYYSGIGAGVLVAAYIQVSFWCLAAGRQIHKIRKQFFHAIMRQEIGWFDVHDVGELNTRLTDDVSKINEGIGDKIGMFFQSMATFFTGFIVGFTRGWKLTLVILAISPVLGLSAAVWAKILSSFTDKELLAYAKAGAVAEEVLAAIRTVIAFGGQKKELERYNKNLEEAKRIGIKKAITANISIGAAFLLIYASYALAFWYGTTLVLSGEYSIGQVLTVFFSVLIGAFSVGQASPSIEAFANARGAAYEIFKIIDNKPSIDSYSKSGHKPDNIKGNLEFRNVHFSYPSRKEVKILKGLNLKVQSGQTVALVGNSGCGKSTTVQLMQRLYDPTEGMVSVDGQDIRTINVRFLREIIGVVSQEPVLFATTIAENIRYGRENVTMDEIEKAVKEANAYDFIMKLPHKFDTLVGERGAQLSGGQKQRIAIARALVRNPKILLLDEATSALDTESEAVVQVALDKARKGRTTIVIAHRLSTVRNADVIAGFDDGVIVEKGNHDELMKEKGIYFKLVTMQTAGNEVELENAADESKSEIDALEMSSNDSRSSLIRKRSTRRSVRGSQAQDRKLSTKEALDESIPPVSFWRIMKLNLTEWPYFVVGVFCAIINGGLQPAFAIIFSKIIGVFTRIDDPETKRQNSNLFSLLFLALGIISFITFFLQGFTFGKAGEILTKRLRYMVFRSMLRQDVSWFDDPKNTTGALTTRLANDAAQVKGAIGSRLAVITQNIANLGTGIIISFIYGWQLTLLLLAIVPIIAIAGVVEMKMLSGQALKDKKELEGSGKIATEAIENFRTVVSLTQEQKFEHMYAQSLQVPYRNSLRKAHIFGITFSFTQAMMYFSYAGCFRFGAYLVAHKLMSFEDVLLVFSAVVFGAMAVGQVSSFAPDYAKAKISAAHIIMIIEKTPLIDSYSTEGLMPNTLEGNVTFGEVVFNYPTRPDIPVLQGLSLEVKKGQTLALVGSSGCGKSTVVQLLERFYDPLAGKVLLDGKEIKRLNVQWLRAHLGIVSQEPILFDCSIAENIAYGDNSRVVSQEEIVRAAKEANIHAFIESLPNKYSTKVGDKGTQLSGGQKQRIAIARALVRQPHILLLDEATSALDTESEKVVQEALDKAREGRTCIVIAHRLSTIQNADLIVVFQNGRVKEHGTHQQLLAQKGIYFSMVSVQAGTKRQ

Nc1ccn([C@@H]2O[C@H](CO)[C@@H](O)C2(F)F)c(=O)n1 [GEMCITABINE]
substrate [+]: all assays above
